Here are results for seven substances from patent US20230263822A1, “MODULATION OF FACTOR 11 EXPRESSION” (Ionis Pharmaceuticals, Inc., priority 2008, published 2023).

Data set [1] concerns human Factor 11 mRNA. Briefly: Dose-dependent inhibition of human Factor 11 in HepG2 cells, electroporation 625-20,000 nM (Example 5). The data set is classed as cell-based. The conditions noted are these: ~16 hours. As to the method: The gapmers were also transfected via electroporation and their dose dependent inhibition of human Factor 11 mRNA was measured. Cells were plated at a density of 20,000 cells per well and transfected via electroporation with 625 nM, 1250 nM, 2500 nM, 5,000 nM, 10,000 nM, and 20,000 nM concentrations of antisense oligonucleotide, as specified in Table 12. After a treatment period of approximately 16 hours, RNA was isolated from the cells and human Factor 11 mRNA levels were measured by quantitative real-time PCR. Human Factor 11 primer probe set RTS 2966 was used to measure mRNA levels. Factor 11 mRNA levels were adjusted according to total RNA content, as measured by RIBOGREEN. Results are presented as percent inhibition of human Factor 11, relative to untreated control cells.

Data set [2] relates to human Factor 11 mRNA. Briefly: Dose-dependent inhibition of human Factor 11 in HepG2 cells, lipofectin 2.34-75 nM (Example 5). It is filed as cell-based. The conditions noted are these: for percent inhibition of human Factor 11 mRNA relative to untreated control cells: ~16 hours. The protocol: Cells were plated at a density of 10,000 cells per well and transfected using lipofectin reagent with 2.34 nM, 4.69 nM, 9.375 nM, 18.75 nM, 37.5 nM, and 75 nM concentrations of antisense oligonucleotide, as specified in Table 11. After a treatment period of approximately 16 hours, RNA was isolated from the cells and human Factor 11 mRNA levels were measured by quantitative real-time PCR. Human Factor 11 primer probe set RTS 2966 was used to measure mRNA levels. Factor 11 mRNA levels were adjusted according to total RNA content, as measured by RIBOGREEN. Results are presented as percent inhibition of human Factor 11, relative to untreated control cells.

As to “416850 (antisense TGCACAGTTTCTGGCAGGCC; 5-10-5 gapmer, further chemistry not given here) [compound 416850]”, the “percent inhibition of human Factor 11 mRNA relative to untreated control cells” value in the data set with human Factor 11 mRNA [1] (625 nM) stood at 69%; with human Factor 11 mRNA [1] (1250 nM) it was 80%; with human Factor 11 mRNA [1] (2500 nM), 87%; in the data set with human Factor 11 mRNA [1] (5000 nM), 90%; with human Factor 11 mRNA [1] (10000 nM) it was 93%; with human Factor 11 mRNA [1] (20000 nM), 96%. In addition, the “percent inhibition of human Factor 11 mRNA relative to untreated control cells” value was determined as 24% in the data set with human Factor 11 mRNA [2] (2.34 nM); 31% in the data set on human Factor 11 mRNA [2] (4.69 nM); 49% in the data set with human Factor 11 mRNA [2] (9.375 nM); 55% with human Factor 11 mRNA [2] (18.75 nM); 70% in the data set on human Factor 11 mRNA [2] (37.5 nM); 77% with human Factor 11 mRNA [2] (75 nM). Further, the concentration for half-maximal inhibition (IC50) (in general, the midpoint of a concentration-inhibition curve) in the data set on human Factor 11 mRNA [2] was 13 nM.
In the case of “416858 (antisense ACGGCATTGGTGCACAGTTT; 5-10-5 gapmer, further chemistry not given here) [compound 416858]”, the “percent inhibition of human Factor 11 mRNA relative to untreated control cells” value with human Factor 11 mRNA [1] (625 nM) stood at 65%; with human Factor 11 mRNA [1] (1250 nM), 77%; in the data set on human Factor 11 mRNA [1] (2500 nM), 87%; in the data set on human Factor 11 mRNA [1] (5000 nM), 89%; in the data set with human Factor 11 mRNA [1] (10000 nM), 93%; in the data set with human Factor 11 mRNA [1] (20000 nM), 93%. Further, the “percent inhibition of human Factor 11 mRNA relative to untreated control cells” value in the data set on human Factor 11 mRNA [2] (2.34 nM) was 11%; in the data set with human Factor 11 mRNA [2] (4.69 nM) it was 35%; in the data set on human Factor 11 mRNA [2] (9.375 nM) it was 46%; with human Factor 11 mRNA [2] (18.75 nM), 61%; with human Factor 11 mRNA [2] (37.5 nM), 75%; in the data set on human Factor 11 mRNA [2] (75 nM), 77%. For the same substance, in the data set with human Factor 11 mRNA [2], inhibition was half-maximal at 11 nM (IC50).
For the substance “416825 (antisense GCCCTTCATGTCTAGGTCCA; 5-10-5 gapmer, further chemistry not given here) [compound 416825]”, the “percent inhibition of human Factor 11 mRNA relative to untreated control cells” value was 69% in the data set with human Factor 11 mRNA [1] (625 nM); 84% in the data set with human Factor 11 mRNA [1] (1250 nM); 91% in the data set with human Factor 11 mRNA [1] (2500 nM); 94% in the data set on human Factor 11 mRNA [1] (5000 nM); 96% in the data set with human Factor 11 mRNA [1] (10000 nM); 97% with human Factor 11 mRNA [1] (20000 nM). Also, the “percent inhibition of human Factor 11 mRNA relative to untreated control cells” value with human Factor 11 mRNA [2] (2.34 nM) is reported as 4%; in the data set on human Factor 11 mRNA [2] (4.69 nM), 22%; with human Factor 11 mRNA [2] (9.375 nM), 39%; with human Factor 11 mRNA [2] (18.75 nM), 57%; in the data set with human Factor 11 mRNA [2] (37.5 nM), 79%; in the data set with human Factor 11 mRNA [2] (75 nM), 89%. This substance had a half-maximal inhibitory concentration (IC50) in the data set on human Factor 11 mRNA [2] of 13 nM.
In the case of “417003 (antisense TGGTGCACAGTTTCTGGCAG; 2-13-5 gapmer chemistry, further chemistry not given here) [compound 417003]”, the “percent inhibition of human Factor 11 mRNA relative to untreated control cells” value in the data set on human Factor 11 mRNA [1] (625 nM) is listed as 60%; in the data set with human Factor 11 mRNA [1] (1250 nM) it was 74%; with human Factor 11 mRNA [1] (2500 nM) it was 86%; in the data set on human Factor 11 mRNA [1] (5000 nM), 90%; in the data set on human Factor 11 mRNA [1] (10000 nM), 95%; in the data set on human Factor 11 mRNA [1] (20000 nM) it was 95%. The “percent inhibition of human Factor 11 mRNA relative to untreated control cells” value came to 6% with human Factor 11 mRNA [2] (2.34 nM); 29% with human Factor 11 mRNA [2] (4.69 nM); 48% in the data set with human Factor 11 mRNA [2] (9.375 nM); 64% in the data set with human Factor 11 mRNA [2] (18.75 nM); 73% in the data set with human Factor 11 mRNA [2] (37.5 nM); 82% in the data set with human Factor 11 mRNA [2] (75 nM). Also, half-maximal inhibition in the data set on human Factor 11 mRNA [2] (IC50) required 11 nM.
On to “416864 (antisense GGCAGCGGACGGCATTGGTG; 5-10-5 gapmer, further chemistry not given here) [compound 416864]”, for which the “percent inhibition of human Factor 11 mRNA relative to untreated control cells” value in the data set on human Factor 11 mRNA [1] (625 nM) was 45%; with human Factor 11 mRNA [1] (1250 nM), 74%; in the data set on human Factor 11 mRNA [1] (2500 nM) it was 84%; in the data set on human Factor 11 mRNA [1] (5000 nM) it was 87%; with human Factor 11 mRNA [1] (10000 nM), 92%; in the data set with human Factor 11 mRNA [1] (20000 nM), 94%. Moreover, the “percent inhibition of human Factor 11 mRNA relative to untreated control cells” value in the data set on human Factor 11 mRNA [2] (2.34 nM) worked out at 13%; with human Factor 11 mRNA [2] (4.69 nM) it was 34%; in the data set with human Factor 11 mRNA [2] (9.375 nM) it was 42%; in the data set with human Factor 11 mRNA [2] (18.75 nM), 65%; in the data set on human Factor 11 mRNA [2] (37.5 nM) it was 68%; in the data set on human Factor 11 mRNA [2] (75 nM), 80%. For the same substance, the IC50 with human Factor 11 mRNA [2] was 15 nM.
On to “416838 (antisense GCAACCGGGATGATGAGTGC; 5-10-5 gapmer, further chemistry not given here) [compound 416838]”, for which the “percent inhibition of human Factor 11 mRNA relative to untreated control cells” value in the data set on human Factor 11 mRNA [1] (625 nM) is 66%; in the data set with human Factor 11 mRNA [1] (1250 nM) it was 79%; in the data set with human Factor 11 mRNA [1] (2500 nM), 87%; in the data set on human Factor 11 mRNA [1] (5000 nM), 90%; in the data set on human Factor 11 mRNA [1] (10000 nM) it was 93%; in the data set with human Factor 11 mRNA [1] (20000 nM), 96%. Also, the “percent inhibition of human Factor 11 mRNA relative to untreated control cells” value stood at 21% in the data set on human Factor 11 mRNA [2] (2.34 nM); 37% in the data set with human Factor 11 mRNA [2] (4.69 nM); 50% in the data set on human Factor 11 mRNA [2] (9.375 nM); 63% with human Factor 11 mRNA [2] (18.75 nM); 74% in the data set on human Factor 11 mRNA [2] (37.5 nM); 83% in the data set on human Factor 11 mRNA [2] (75 nM). In the data set on human Factor 11 mRNA [2], this substance registered an IC50 of 10 nM.
Turning to “416892 (antisense GCCCTTCATGTCTAGGTCCA; 3-14-3 chimeric gapmer, further chemistry not given here) [compound 416892]”, the “percent inhibition of human Factor 11 mRNA relative to untreated control cells” value was determined as 66% in the data set on human Factor 11 mRNA [1] (625 nM); 86% in the data set on human Factor 11 mRNA [1] (1250 nM); 96% in the data set with human Factor 11 mRNA [1] (2500 nM); 97% with human Factor 11 mRNA [1] (5000 nM); 100% with human Factor 11 mRNA [1] (10000 nM); 100% in the data set on human Factor 11 mRNA [1] (20000 nM). The “percent inhibition of human Factor 11 mRNA relative to untreated control cells” value with human Factor 11 mRNA [2] (2.34 nM) is 14%; in the data set on human Factor 11 mRNA [2] (4.69 nM) it was 34%; in the data set on human Factor 11 mRNA [2] (9.375 nM), 49%; with human Factor 11 mRNA [2] (18.75 nM) it was 70%; in the data set on human Factor 11 mRNA [2] (37.5 nM) it was 84%; in the data set on human Factor 11 mRNA [2] (75 nM) it was 93%. For the same substance, in the data set with human Factor 11 mRNA [2], the 50% inhibitory concentration (IC50) is 9 nM.
